Source: patent US20250361230A1, “LATS Inhibitors and Uses Thereof” (The USA, as Represented by the Secretary, Dept. of Heath …, priority 2022, published 2025)
Like-named read-outs stand apart in the source and are kept apart here.

How the values were obtained:
Assay type in all cases: biochemical
AKT = AKT (Homo sapiens, UniProt P31749); experiment: RBC HotSpot kinase assay (33P-ATP, P81 filter-binding), AKT; conditions: read-out: AKT IC50
Summary of the method: (§1)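 Compounds were run as single 10-point titrations to give IC50 values in nM. Each kinase was mixed with substrate and cofactors in 20 mM Hepes pH 7.5 reaction buffer with 1% DMSO, then exposed to compound for 20 min. 33P-ATP was added for a 2 h room-temperature reaction, with activity measured by P81 filter binding.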

LATS1 = molecular target: T1, LATS1 (Homo sapiens, UniProt O95835); experiment: RBC HotSpot kinase assay (33P-ATP, P81 filter-binding), LATS1; conditions: read-out: LATS1 IC50
T1 sequence (O95835 1-1130): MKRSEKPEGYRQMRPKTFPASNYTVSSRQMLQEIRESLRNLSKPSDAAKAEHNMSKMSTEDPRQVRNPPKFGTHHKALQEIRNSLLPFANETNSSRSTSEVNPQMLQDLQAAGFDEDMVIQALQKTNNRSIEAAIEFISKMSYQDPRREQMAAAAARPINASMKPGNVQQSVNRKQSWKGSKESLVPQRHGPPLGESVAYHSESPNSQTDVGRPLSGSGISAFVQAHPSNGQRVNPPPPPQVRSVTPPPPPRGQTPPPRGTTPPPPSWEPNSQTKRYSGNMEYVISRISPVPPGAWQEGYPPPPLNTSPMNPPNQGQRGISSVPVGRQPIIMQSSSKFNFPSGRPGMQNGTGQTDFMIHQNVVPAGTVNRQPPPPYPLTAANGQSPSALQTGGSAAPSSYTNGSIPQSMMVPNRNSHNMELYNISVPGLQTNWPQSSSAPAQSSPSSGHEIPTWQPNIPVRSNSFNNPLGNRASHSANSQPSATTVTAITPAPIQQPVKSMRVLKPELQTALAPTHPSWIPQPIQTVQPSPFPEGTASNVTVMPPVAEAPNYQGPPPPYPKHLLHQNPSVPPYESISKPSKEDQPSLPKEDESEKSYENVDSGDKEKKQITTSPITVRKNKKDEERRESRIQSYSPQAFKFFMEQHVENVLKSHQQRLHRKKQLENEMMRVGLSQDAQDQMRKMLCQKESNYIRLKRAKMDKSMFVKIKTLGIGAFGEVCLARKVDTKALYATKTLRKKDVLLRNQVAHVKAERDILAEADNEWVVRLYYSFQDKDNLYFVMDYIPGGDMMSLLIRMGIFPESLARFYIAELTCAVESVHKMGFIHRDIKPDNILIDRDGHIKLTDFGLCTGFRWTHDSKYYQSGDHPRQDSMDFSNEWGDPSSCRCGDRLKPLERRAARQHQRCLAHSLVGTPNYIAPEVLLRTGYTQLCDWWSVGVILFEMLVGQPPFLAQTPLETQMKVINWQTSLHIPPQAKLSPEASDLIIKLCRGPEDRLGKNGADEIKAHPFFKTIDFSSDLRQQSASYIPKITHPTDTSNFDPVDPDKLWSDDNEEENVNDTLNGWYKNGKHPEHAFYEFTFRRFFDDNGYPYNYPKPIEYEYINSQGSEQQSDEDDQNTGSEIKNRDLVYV
Summary of the method: as §1

LATS2 = molecular target: T2, LATS2 (Homo sapiens, UniProt Q9NRM7); experiment: RBC HotSpot kinase assay (33P-ATP, P81 filter-binding), LATS2; conditions: read-out: LATS2 IC50
T2 sequence (Q9NRM7 1-1088): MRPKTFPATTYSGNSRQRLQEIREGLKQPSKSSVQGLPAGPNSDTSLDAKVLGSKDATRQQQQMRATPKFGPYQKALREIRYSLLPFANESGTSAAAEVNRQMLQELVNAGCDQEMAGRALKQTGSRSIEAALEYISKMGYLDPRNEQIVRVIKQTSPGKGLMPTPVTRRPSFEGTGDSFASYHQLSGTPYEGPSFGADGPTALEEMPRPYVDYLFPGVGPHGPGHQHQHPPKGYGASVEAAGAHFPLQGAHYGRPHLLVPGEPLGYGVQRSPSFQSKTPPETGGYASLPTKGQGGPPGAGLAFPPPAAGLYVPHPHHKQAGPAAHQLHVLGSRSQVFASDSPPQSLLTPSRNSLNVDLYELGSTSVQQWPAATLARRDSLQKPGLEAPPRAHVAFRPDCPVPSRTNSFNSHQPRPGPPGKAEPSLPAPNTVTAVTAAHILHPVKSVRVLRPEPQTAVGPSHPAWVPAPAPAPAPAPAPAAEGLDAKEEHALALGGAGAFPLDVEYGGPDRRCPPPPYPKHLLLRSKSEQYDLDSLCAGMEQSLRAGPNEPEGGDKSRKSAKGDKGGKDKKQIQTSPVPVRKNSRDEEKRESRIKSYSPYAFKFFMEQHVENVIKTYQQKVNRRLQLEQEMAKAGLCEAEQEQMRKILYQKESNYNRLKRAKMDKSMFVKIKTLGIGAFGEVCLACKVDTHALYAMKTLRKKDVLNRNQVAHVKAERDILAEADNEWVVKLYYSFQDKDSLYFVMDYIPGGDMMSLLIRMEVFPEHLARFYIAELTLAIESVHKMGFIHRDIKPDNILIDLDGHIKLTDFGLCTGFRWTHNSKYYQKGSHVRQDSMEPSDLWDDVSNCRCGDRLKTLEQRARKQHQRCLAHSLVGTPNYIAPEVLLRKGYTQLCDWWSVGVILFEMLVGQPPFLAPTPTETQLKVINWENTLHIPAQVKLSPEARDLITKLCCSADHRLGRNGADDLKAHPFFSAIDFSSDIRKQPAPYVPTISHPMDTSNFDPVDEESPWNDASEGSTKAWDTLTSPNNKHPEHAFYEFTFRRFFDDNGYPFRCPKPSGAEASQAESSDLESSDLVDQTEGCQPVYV
Summary of the method: as §1

[1] = Table 28, biochemical kinase assay
[2] = Table 32, biochemical kinase assay

Chain of AKT (P31749 whole entry): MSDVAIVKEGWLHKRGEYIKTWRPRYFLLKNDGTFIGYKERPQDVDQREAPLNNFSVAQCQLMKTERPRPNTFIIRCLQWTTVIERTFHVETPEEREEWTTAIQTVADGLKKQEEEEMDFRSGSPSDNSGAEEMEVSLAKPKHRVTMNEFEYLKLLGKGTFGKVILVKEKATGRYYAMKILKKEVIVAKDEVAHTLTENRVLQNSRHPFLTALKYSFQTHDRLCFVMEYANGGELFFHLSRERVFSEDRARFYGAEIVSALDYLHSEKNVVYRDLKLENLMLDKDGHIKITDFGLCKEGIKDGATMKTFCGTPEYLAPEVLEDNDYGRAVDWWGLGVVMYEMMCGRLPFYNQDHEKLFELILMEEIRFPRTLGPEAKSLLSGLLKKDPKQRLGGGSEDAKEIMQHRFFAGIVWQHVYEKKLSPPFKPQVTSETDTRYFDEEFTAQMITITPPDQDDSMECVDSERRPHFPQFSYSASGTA

Row | IC50 (AKT; [1]) | IC50 (LATS1; [1]) | IC50 (LATS2; [1]) | IC50 (AKT; [2]) | IC50 (LATS1; [2]) | IC50 (LATS2; [2]) | Compound
1 | 1090 nM | 10 nM | 8.4 nM |  |  |  | Cc1cc(-c2ccnc3[nH]ccc23)cc(F)c1[C@@]1(O)[C@H](C)CN(C2CCS(=O)(=O)CC2)C[C@@H]1C [Compound 308, 4-((3S,4s,5R)-4-(2-fluoro-6-methyl-4-(1H-pyrrolo[2,3-b]pyridin-4-yl)phenyl)-4-hydroxy-3,5-dimethylpiperidin-1-yl)tetrahydro-2H-thiopyran 1,1-dioxide]
2 | 1040 nM | 6.9 nM | 3.6 nM |  |  |  | COC(=O)c1c[nH]c2nccc(-c3ccc([C@@]4(O)[C@H](C)CN(C(=O)CN)C[C@@H]4C)c(C)c3)c12 [Compound 311, methyl 4-(4-((3S,4s,5R)-1-glycyl-4-hydroxy-3,5-dimethylpiperidin-4-yl)-3-methylphenyl)-1H-pyrrolo[2,3-b]pyridine-3-carboxylate]
3 | 249 nM | 1.6 nM | 4.8 nM |  |  |  | Cc1cc(-c2ccnc3[nH]cc(C)c23)cc(F)c1[C@@]1(O)[C@H](C)CN(C(=O)CN)C[C@@H]1C [Compound 314, 2-amino-1-((3S,4s,5R)-4-(2-fluoro-6-methyl-4-(3-methyl-1H-pyrrolo[2,3-b]pyridin-4-yl)phenyl)-4-hydroxy-3,5-dimethylpiperidin-1-yl)ethan-1-one]
4 | 1350 nM | 11.6 nM | 5.7 nM |  |  |  | CN[C@@H](C)C(=O)N1C[C@@H](C)[C@](O)(c2c(C)cc(-c3ccnc4[nH]cc(F)c34)cc2F)[C@@H](C)C1 [Compound 315, (S)-1-((3S,4R,5R)-4-(2-fluoro-4-(3-fluoro-1H-pyrrolo[2,3-b]pyridin-4-yl)-6-methylphenyl)-4-hydroxy-3,5-dimethylpiperidin-1-yl)-2-(methylamino) propan-1-one]
5 | 1370 nM | 12 nM | 6.8 nM |  |  |  | CN[C@H](C)C(=O)N1C[C@@H](C)[C@](O)(c2c(C)cc(-c3ccnc4[nH]cc(F)c34)cc2F)[C@@H](C)C1 [Compound 316, (R)-1-((3S,4S,5R)-4-(2-fluoro-4-(3-fluoro-1H-pyrrolo[2,3-b]pyridin-4-yl)-6-methylphenyl)-4-hydroxy-3,5-dimethylpiperidin-1-yl)-2-(methylamino) propan-1-one]
6 | 186 nM | 7.6 nM | 3.8 nM |  |  |  | Cc1cc(-c2ccnc3[nH]cc(Cl)c23)cc(F)c1[C@@]1(O)[C@H](C)CN(C(=O)CN)C[C@@H]1C [Compound 317, 2-amino-1-((3S,4s,5R)-4-(4-(3-chloro-1H-pyrrolo[2,3-b]pyridin-4-yl)-2-fluoro-6-methylphenyl)-4-hydroxy-3,5-dimethylpiperidin-1-yl)ethan-1-one]
7 | 1420 nM | 4.1 nM | 1.3 nM |  |  |  | Cc1cc(-c2ccnc3[nH]cc(-c4cccnc4)c23)cc(F)c1[C@@]1(O)[C@H](C)CN(C(=O)CN)C[C@@H]1C [Compound 318, 2-amino-1-((3S,4s,5R)-4-(2-fluoro-6-methyl-4-(3-(pyridin-3-yl)-1H-pyrrolo[2,3-b]pyridin-4-yl)phenyl)-4-hydroxy-3,5-dimethylpiperidin-1-yl)ethan-1-one]
8 |  |  |  | 3.2 nM | 31.7 nM | 12 nM | NCC(O)(c1ccc(Cl)cc1)c1ccc(-c2ccnc3[nH]cc(Cl)c23)cc1 (stereo not drawn) [Compound 1003, 2-amino-1-(4-(3-chloro-1H-pyrrolo[2,3-b]pyridin-4-yl)phenyl)-1-(4-chlorophenyl) ethan-1-ol]
9 |  |  |  | < 0.5 nM | 0.5 nM | < 0.5 nM | NCC(O)(c1ccc(Cl)cc1)c1ccc(-c2ccnc3[nH]cc(Cl)c23)nc1 (stereo not drawn) [Compound 1010, 2-amino-1-(6-(3-chloro-1H-pyrrolo[2,3-b]pyridin-4-yl)pyridin-3-yl)-1-(4-chlorophenyl)ethan-1-ol]
10 |  |  |  | 126 nM | 8.5 nM | 8.4 nM | NCC(O)(c1ccc(Cl)cc1)c1ccc(-c2ccnc3[nH]cc(-c4ccccc4)c23)nc1 (stereo not drawn) [Compound 1012, 2-amino-1-(4-chlorophenyl)-1-(6-(3-phenyl-1H-pyrrolo[2,3-b]pyridin-4-yl)pyridin-3-yl) ethan-1-ol]
11 |  |  |  | 17.2 nM | 3.7 nM | 5.1 nM | CC(=O)NCC(O)(c1ccc(Cl)cc1)c1ccc(-c2ccnc3[nH]ccc23)cc1 (stereo not drawn) [Compound 1014, N-(2-(4-(1H-pyrrolo[2,3-b]pyridin-4-yl)phenyl)-2-(4-chlorophenyl)-2-hydroxyethyl)acetamide]
12 |  |  |  | 5.9 nM | 4 nM | 3.7 nM | O=C(CO)NCC(O)(c1ccc(Cl)cc1)c1ccc(-c2ccnc3[nH]ccc23)cc1 (stereo not drawn) [Compound 1015, N-(2-(4-(1H-pyrrolo[2,3-b]pyridin-4-yl)phenyl)-2-(4-chlorophenyl)-2-hydroxyethyl)-2-hydroxyacetamide]
13 |  |  |  | 7.4 nM | 7 nM | 4 nM | O=C(CO)NCC(O)(c1ccc(Cl)cc1)c1ccc(-c2ccnc3[nH]cc(F)c23)cc1 (stereo not drawn) [Compound 1016, N-(2-(4-chlorophenyl)-2-(4-(3-fluoro-1H-pyrrolo[2,3-b]pyridin-4-yl)phenyl)-2-hydroxyethyl)-2-hydroxyacetamide]
14 |  |  |  | 2.8 nM | 5.4 nM | 2.8 nM | O=C(CO)NCC(O)(c1ccc(Cl)cc1)c1ccc(-c2ccnc3[nH]cc(Cl)c23)cc1 (stereo not drawn) [Compound 1017, N-(2-(4-(3-chloro-1H-pyrrolo[2,3-b]pyridin-4-y1)phenyl)-2-(4-chlorophenyl)-2-hydroxyethyl)-2-hydroxyacetamide]
15 |  |  |  | 73.6 nM | 18.7 nM | 10.1 nM | CC(C)(O)C(=O)NCC(O)(c1ccc(Cl)cc1)c1ccc(-c2ccnc3[nH]ccc23)cc1 (stereo not drawn) [Compound 1018, N-(2-(4-(1H-pyrrolo[2,3-b]pyridin-4-yl)phenyl)-2-(4-chlorophenyl)-2-hydroxyethyl)-2-hydroxy-2-methylpropanamide]
16 |  |  |  | 5.4 nM | 4 nM | 5.6 nM | CN(C)CC(=O)NCC(O)(c1ccc(Cl)cc1)c1ccc(-c2ccnc3[nH]ccc23)cc1 (stereo not drawn) [Compound 1019, N-(2-(4-(1H-pyrrolo[2,3-b]pyridin-4-yl)phenyl)-2-(4-chlorophenyl)-2-hydroxyethyl)-2-(dimethylamino) acetamide]
